Results: ChEMBL document CHEMBL3112438, “Structure-based optimization of cyclopropyl urea derivatives as potent soluble epoxide hydrolase inhibitors for potential decrease of renal injury without hypotensive action” (Bioorg Med Chem, 2014)
Converted amounts (≈) assume the structure as drawn. The source made the active and inactive calls. No cut-off for these calls is given here.

What was measured:
[1] = molecular target: T1, Bifunctional epoxide hydrolase 2 (Rattus norvegicus, UniProt P80299); assay: Inhibition of rat recombinant soluble epoxide hydrolase after 1 hr by fluorescence assay
T1 sequence (P80299 whole entry): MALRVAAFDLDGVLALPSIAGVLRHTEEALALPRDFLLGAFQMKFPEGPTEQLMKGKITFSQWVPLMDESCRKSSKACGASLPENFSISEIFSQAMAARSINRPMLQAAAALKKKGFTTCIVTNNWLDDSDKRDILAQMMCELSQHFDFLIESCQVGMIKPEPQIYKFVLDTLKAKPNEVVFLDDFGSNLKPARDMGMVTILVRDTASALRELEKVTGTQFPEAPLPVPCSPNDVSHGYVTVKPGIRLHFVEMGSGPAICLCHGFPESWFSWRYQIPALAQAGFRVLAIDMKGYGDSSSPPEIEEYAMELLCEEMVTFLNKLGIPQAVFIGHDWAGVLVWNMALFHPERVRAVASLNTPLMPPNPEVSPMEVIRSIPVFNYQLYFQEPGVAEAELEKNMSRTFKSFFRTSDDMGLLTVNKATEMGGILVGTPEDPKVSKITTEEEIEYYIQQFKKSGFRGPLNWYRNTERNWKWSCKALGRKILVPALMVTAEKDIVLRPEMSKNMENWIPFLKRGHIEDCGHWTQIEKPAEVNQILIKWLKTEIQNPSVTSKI

[2] = molecular target: T2, Bifunctional epoxide hydrolase 2 (Homo sapiens, UniProt P34913); assay: Inhibition of human recombinant soluble epoxide hydrolase after 1 hr by fluorescence assay
T2 sequence (P34913 whole entry): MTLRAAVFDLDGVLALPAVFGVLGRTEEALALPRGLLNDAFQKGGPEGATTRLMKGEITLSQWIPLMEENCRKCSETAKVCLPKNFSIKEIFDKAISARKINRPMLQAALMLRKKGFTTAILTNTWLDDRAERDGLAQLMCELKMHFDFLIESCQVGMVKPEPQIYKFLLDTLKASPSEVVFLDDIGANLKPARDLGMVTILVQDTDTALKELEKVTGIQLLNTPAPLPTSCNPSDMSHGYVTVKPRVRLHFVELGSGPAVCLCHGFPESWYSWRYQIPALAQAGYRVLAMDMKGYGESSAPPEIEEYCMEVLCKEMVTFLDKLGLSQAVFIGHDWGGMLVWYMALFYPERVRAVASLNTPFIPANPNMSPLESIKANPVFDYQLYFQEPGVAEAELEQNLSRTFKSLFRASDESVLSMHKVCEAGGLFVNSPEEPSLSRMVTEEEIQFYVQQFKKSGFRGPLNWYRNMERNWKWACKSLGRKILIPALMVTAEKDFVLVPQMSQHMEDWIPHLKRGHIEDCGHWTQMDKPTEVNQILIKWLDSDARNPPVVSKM

[3] = molecular target: T3, Cytochrome P450 2C8 (Homo sapiens, UniProt P10632); assay: Inhibition of CYP2C8 in human liver microsomes after 10 mins by LC/MS/MS analysis; format: ADME
T3 sequence (P10632 whole entry): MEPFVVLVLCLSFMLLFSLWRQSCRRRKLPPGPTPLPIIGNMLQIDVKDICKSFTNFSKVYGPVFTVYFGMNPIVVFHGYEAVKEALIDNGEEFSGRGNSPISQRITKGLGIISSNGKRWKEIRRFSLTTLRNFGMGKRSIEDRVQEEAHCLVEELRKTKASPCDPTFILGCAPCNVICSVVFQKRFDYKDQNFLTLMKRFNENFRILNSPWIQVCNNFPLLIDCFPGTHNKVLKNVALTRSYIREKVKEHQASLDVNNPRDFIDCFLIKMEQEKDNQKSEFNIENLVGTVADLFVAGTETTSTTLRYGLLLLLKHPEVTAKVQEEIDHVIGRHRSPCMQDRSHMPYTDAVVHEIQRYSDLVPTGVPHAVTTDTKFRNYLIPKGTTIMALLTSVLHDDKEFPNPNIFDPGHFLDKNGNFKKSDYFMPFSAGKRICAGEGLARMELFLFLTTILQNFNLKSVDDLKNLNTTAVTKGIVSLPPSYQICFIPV

[4] = Aqueous solubility of the compound at pH 7.4 after 90 mins; format: physicochemical
[5] = test system: Liver microsome; assay: Intrinsic clearance in rat liver microsomes measured per mg of protein at 1 uM after 30 mins by LC/MS/MS analysis; format: ADME; settings: 0.5 h
[6] = test system: Liver microsome; assay: Intrinsic clearance in human liver microsomes measured per mg of protein at 1 uM after 30 mins by LC/MS/MS analysis; format: ADME; settings: 0.5 h
[7] = test system: Rattus norvegicus; assay: AUC in Sprague-Dawley rat at 10 mg/kg, po; format: ADME, organism-based, Plasma; design: dose 10 mg/kg, route oral; settings: in vivo
[8] = molecular target: T4, Cytochrome P450 2C19 (Homo sapiens, UniProt P33261); assay: Inhibition of CYP2C19 in human liver microsomes after 10 mins by LC/MS/MS analysis; format: ADME
[9] = test system: Rattus norvegicus; assay: Bioavailability in Sprague-Dawley rat at 1 mg/kg, iv and 10 mg/kg, po; format: ADME, organism-based; settings: in vivo
[10] = test system: Rattus norvegicus; assay: Renal toxicity in Sprague-Dawley rat DOCA-salt model assessed as effect on N-acetyl-beta-D-glucosaminidase level at 100 mg/kg, po measured on day 28 post last dose; format: organism-based; design: dose 100 mg/kg, route oral; settings: in vivo
[11] = test system: Rattus norvegicus; assay: Renoprotective activity in Sprague-Dawley rat DOCA-salt model assessed as decrease in urinary MCP-1 excretion at 100 mg/kg, po measured on day 28 post last dose; format: functional, organism-based; design: dose 100 mg/kg; settings: Urine
[12] = test system: Rattus norvegicus; assay: Renoprotective activity in Sprague-Dawley rat DOCA-salt model assessed as decrease in urinary albumin excretion at 100 mg/kg, po measured on day 28 post last dose; format: functional, organism-based; design: dose 100 mg/kg; settings: Urine
[13] = test system: Rattus norvegicus; assay: Antihypertensive activity in Sprague-Dawley rat DOCA-salt model assessed as decrease in systolic blood pressure at 100 mg/kg, po measured on day 28 post last dose by tail-cuff method; format: functional, organism-based; design: dose 100 mg/kg; settings: Artery
[14] = test system: Rattus norvegicus; assay: Ex vivo inhibition of soluble epoxide hydrolase in Sprague-Dawley rat whole blood assessed as inhibition of 14,15-DHET production at 100 mg/kg, po measured after 1 to 6 hrs by ELISA relative to vehicle-treated control; format: functional
[15] = test system: Rattus norvegicus; assay: Ex vivo inhibition of soluble epoxide hydrolase in po dosed Sprague-Dawley rat assessed as inhibition of 14,15-DHET production measured after 1 to 24 hrs by ELISA; format: functional, organism-based
[16] = molecular target: T4, Cytochrome P450 2C19; assay: Inhibition of CYP2C19 in human liver microsomes after 10 mins by mechanism-based assay; format: ADME
[17] = molecular target: T3, Cytochrome P450 2C8; assay: Inhibition of CYP2C8 in human liver microsomes after 10 mins by mechanism-based assay; format: ADME

T4 sequence (P33261 whole entry): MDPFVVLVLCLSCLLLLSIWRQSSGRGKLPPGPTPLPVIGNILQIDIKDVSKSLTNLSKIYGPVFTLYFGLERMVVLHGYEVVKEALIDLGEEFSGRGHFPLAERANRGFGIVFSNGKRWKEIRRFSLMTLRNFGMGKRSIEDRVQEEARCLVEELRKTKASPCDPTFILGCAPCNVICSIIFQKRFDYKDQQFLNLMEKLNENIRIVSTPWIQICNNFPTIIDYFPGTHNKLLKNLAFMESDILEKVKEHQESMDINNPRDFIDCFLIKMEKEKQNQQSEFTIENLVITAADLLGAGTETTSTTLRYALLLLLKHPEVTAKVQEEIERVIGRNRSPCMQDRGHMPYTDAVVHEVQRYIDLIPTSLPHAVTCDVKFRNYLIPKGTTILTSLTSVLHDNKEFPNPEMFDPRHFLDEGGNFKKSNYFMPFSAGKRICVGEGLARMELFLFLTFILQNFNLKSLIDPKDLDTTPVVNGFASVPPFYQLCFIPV

## O=C(N[C@H]1C[C@@H]1c1ccccc1)N1CCC(Oc2ncccn2)CC1 (racemic)
[1]
  IC50: > 100 nM
[2]
  IC50: 94.2 nM

## O=C(N[C@H]1C[C@@H]1c1ccccc1)N1CCC(Oc2ccccn2)CC1 (racemic)
[1]
  IC50: 35.4 nM
[2]
  IC50: 27.4 nM

## O=C(N[C@H]1C[C@@H]1c1ccccc1)N1CCC(Oc2ccc(-c3nnn[nH]3)cc2)CC1 (racemic)
[3]
  IC50: 800 nM
[4]
  solubility at 1.5 h: > 150 µg/mL
[5]
  CLint: < 10 µL/min/mg
[1]
  IC50: 6.6 nM
[6]
  CLint: < 33 µL/min/mg
[2]
  IC50: 3.3 nM

## O=C(N[C@H]1C[C@@H]1c1ccccc1)N1CCC(Oc2ccccc2Cl)CC1 (racemic)
[1]
  IC50: 3.5 nM
[2]
  IC50: 2 nM

## O=C(N[C@H]1C[C@@H]1c1ccccc1)N1CCC(Oc2cccnc2)CC1 (racemic)
[1]
  IC50: 20.2 nM
[2]
  IC50: 25.2 nM

## O=C(N[C@H]1C[C@@H]1c1ccccc1)N1CCC(Oc2ccccc2-c2ccccc2)CC1 (racemic)
[1]
  IC50: 20.7 nM
[2]
  IC50: 14.7 nM

## O=C(O)c1ccc(OC2CCN(C(=O)N[C@H]3C[C@@H]3c3ccccc3)CC2)c(Cl)c1 (racemic)
[7]
  AUC: 15900 ng·h/mL
[8]
  IC50: > 50000 nM
[9]
  F: 31%
[3]
  IC50: > 50000 nM
[4]
  solubility at 1.5 h: > 150 µg/mL
[5]
  CLint: < 10 µL/min/mg
[1]
  IC50: 4.1 nM
[6]
  CLint: < 10 µL/min/mg
[2]
  IC50: 2.6 nM

## O=C(N[C@H]1C[C@@H]1c1ccccc1)N1CCC(Oc2ccc(Cl)cc2)CC1 (racemic)
[1]
  IC50: 9.3 nM
[2]
  IC50: 22.4 nM

## O=C(O)c1ccccc1OC1CCN(C(=O)N[C@H]2C[C@@H]2c2ccccc2)CC1 (racemic)
[1]
  IC50: > 100 nM
[2]
  IC50: > 100 nM

## O=C(N[C@H]1C[C@@H]1c1ccccc1)N1CCC(Oc2ccccc2C(F)(F)F)CC1 (racemic)
[1]
  IC50: 3.2 nM
[2]
  IC50: 2.1 nM

## O=C(N[C@H]1C[C@@H]1c1ccccc1)N1CCC(Oc2ccc(C(F)(F)F)cc2)CC1 (relative stereo)
[1]
  IC50: 8.9 nM
[2]
  IC50: 29.8 nM

## O=C(O)Cc1ccc(OC2CCN(C(=O)N[C@H]3C[C@@H]3c3ccccc3)CC2)c(Cl)c1 (racemic)
[10]
  Activity: Non-toxic
[11]
  Activity: Active
[12]
  Activity: Active
[13]
  Activity: inactive
[14]
  inhibition in vivo at 100 mg/kg: < 20%
[15]
  inhibition: Dose-dependent effect
[7]
  AUC: 30400 ng·h/mL
[8]
  IC50: > 50000 nM
[9]
  F: 63%
[3]
  IC50: > 50000 nM
[4]
  solubility at 1.5 h: > 150 µg/mL
[5]
  CLint: < 10 µL/min/mg
[1]
  IC50: 6.6 nM
[6]
  CLint: < 10 µL/min/mg
[2]
  IC50: 4.3 nM

## COc1ccc(OC2CCN(C(=O)N[C@H]3C[C@@H]3c3ccccc3)CC2)cc1 (racemic)
[1]
  IC50: 5 nM
[2]
  IC50: 10.2 nM

## O=C(N[C@H]1C[C@@H]1c1ccccc1)N1CCC(Oc2cccc(-c3ccccc3)c2)CC1 (racemic)
[1]
  IC50: 5.9 nM
[2]
  IC50: 10.7 nM

## COc1cccc(OC2CCN(C(=O)N[C@H]3C[C@@H]3c3ccccc3)CC2)c1 (relative stereo)
[1]
  IC50: 5.1 nM
[2]
  IC50: 7.4 nM

## O=C(N[C@H]1C[C@@H]1c1ccccc1)N1CCC(OC(c2ccccc2)c2ccccc2)CC1 (racemic)
[1]
  IC50: 5.2 nM
[2]
  IC50: 27.1 nM

## Cc1ccccc1OC1CCN(C(=O)N[C@H]2C[C@@H]2c2ccccc2)CC1 (racemic)
[4]
  solubility at 1.5 h: < 0.2 µg/mL
[1]
  IC50: 4.2 nM
[2]
  IC50: 3.1 nM

## COc1ccccc1OC1CCN(C(=O)N[C@H]2C[C@@H]2c2ccccc2)CC1 (racemic)
[1]
  IC50: 12.8 nM
[2]
  IC50: 11.3 nM

## O=C(N[C@H]1C[C@@H]1c1ccccc1)N1CCC(Oc2cccc(C(F)(F)F)c2)CC1 (racemic)
[1]
  IC50: 10.5 nM
[2]
  IC50: 15.8 nM

## Cc1cccc(OC2CCN(C(=O)N[C@H]3C[C@@H]3c3ccccc3)CC2)c1 (racemic)
[1]
  IC50: 6.5 nM
[2]
  IC50: 8.9 nM

## CC(C)c1noc(C2CCN(C(=O)N[C@H]3C[C@@H]3c3ccccc3)CC2)n1 (relative stereo)
[16]
  inhibition (INH): Active
[4]
  solubility at 1.5 h: 41 µg/mL (≈ 116 µM)
[17]
  inhibition (INH): Active
[5]
  CLint: 79 µL/min/mg
[1]
  IC50: 8.3 nM
[6]
  CLint: < 10 µL/min/mg

## O=C(O)c1cccc(OC2CCN(C(=O)N[C@H]3C[C@@H]3c3ccccc3)CC2)c1 (racemic)
[4]
  solubility at 1.5 h: > 150 µg/mL
[5]
  CLint: < 10 µL/min/mg
[1]
  IC50: > 100 nM
[6]
  CLint: < 10 µL/min/mg
[2]
  IC50: > 100 nM

## O=C(N[C@H]1C[C@@H]1c1ccccc1)N1CCC(Oc2cccc(Cl)c2)CC1 (racemic)
[1]
  IC50: 8 nM
[2]
  IC50: 12 nM

## Cc1ccc(OC2CCN(C(=O)N[C@H]3C[C@@H]3c3ccccc3)CC2)cc1 (racemic)
[1]
  IC50: 6.8 nM
[2]
  IC50: 14.2 nM

## O=C(N[C@H]1C[C@@H]1c1ccccc1)N1CCC(Oc2cnccn2)CC1 (racemic)
[1]
  IC50: 25.6 nM
[2]
  IC50: 26.7 nM

## O=C(O)c1ccc(OC2CCN(C(=O)N[C@H]3C[C@@H]3c3ccccc3)CC2)cc1 (racemic)
[4]
  solubility at 1.5 h: > 150 µg/mL
[5]
  CLint: < 10 µL/min/mg
[1]
  IC50: 32.2 nM
[6]
  CLint: < 10 µL/min/mg
[2]
  IC50: 30.3 nM

## O=C(N[C@H]1C[C@@H]1c1ccccc1)N1CCC(Oc2ccccc2)CC1 (racemic)
[1]
  IC50: 18.3 nM
[2]
  IC50: 18 nM

## O=C(N[C@H]1C[C@@H]1c1ccccc1)N1CCC(Oc2ccc(-c3ccccc3)cc2)CC1 (racemic)
[1]
  IC50: 6.7 nM
[2]
  IC50: 12 nM

## O=C(O)Cc1ccc(OC2CCN(C(=O)N[C@H]3C[C@@H]3c3ccccc3)CC2)cc1 (relative stereo)
[4]
  solubility at 1.5 h: > 150 µg/mL
[5]
  CLint: < 10 µL/min/mg
[1]
  IC50: 56.6 nM
[6]
  CLint: < 33 µL/min/mg
[2]
  IC50: 43.2 nM

## O=C(N[C@H]1C[C@@H]1c1ccccc1)N1CCC(Oc2ccncc2)CC1 (racemic)
[1]
  IC50: 12.3 nM
[2]
  IC50: 24.4 nM
